Values quoted from earlier work, collected in patent US6696575B2, “Biodegradable, electrically conducting polymer for tissue engineering applications” (Board of Regents, The University of Texas System, priority 2001, dated 2004).

Tests used:
rat = details: oral administration
mouse = details: oral administration
rat sciatic nerve = details: in vivo

Row | Compound | one-half lethal dose (LD50) (rat) [mg/kg] | further results
1 | CCO [ethanol] | 7000 | –
2 | OCCCO [Propanediol, 1,3-propanediol] | – | one-half lethal dose (LD50) (mouse): 5000 mg/kg
3 | polypyrrole [PP] | – | tissue response on implantation (rat sciatic nerve): provoked little adverse tissue response
4 | CCCCCC(=O)O [hexanoic acid] | 3000 | –
